Experimental data: patent US4067997A, “Synergistic microbecidal composition and method” (priority 1976, dated 1978)
Converted amounts (≈) assume the structure as drawn. Where two headings read alike, the source gives them in different places.

How the values were obtained:
Staphylococcus aureus = assay: MIC, agar dilution method (Example XVI); type: cell-based
Description: (§1) In a manner similar to that described in Example V, the effectiveness of certain food-grade microbecides are compared with mono-esters in an agar dilution method. The very favorable results may be noted from Table 19.

Aspergillus niger = assay: MIC, agar dilution method (Example XVI); type: cell-based
Description: as §1

Bacillus subtilis = assay: MIC, agar dilution method (Example XVI); type: cell-based
Description: as §1

Escherichia coli = assay: MIC, agar dilution method (Example XVI); type: cell-based
Description: as §1

Canadida albicans = assay: MIC, agar dilution method (Example XVI); type: cell-based
Description: as §1

Pseudomonas aeruginosa = assay: MIC, agar dilution method (Example XVI); type: cell-based
Description: as §1

gram-positive organisms = assay: Inhibition, broth dilution (Example I); type: cell-based; conditions: read-out: Inhibitory concentration
Protocol: (§2) In order to establish comparative bactericidal and fungicidal results with homologous fatty acids, a series of experiments was performed with thirty straight-chain fatty acids and derivatives thereof. Eight different gram-negative and twelve different gram-positive organisms, representing a very broad spectrum of organisms, were used in these experiments including the fungus Candida (a yeast). Additionally, fatty acids were chosen to show the effects of saturation versus unsaturation, in the fatty acid claim. Standard solutions of the fatty acids and their derivatives were prepared by first dissolving the weighed compounds in 1 to 2 ml of 95% ethanol and immediately pouring this solution into 200 ml of Tripticase Soy Broth. These lipid compounds which are insoluble in water and broth precipitated into very small crystals or droplets. The tubes containing the suspension were warmed to approximately 70° C and were then placed in an ultrasonic tank for further solubilization of the lipid derivatives.
(§3) Standard solutions (or suspensions) at 1,000 μg/ml were twofold serially diluted with additional broth to a concentration of 125 μg/ml. A 4-ml amount of each dilution was then quickly, and with constant agitation, dispensed into appropriately labeled screw-capped glass tubes (16 by 125 mm). The tubes were sterilized with steam at 15 psi for 15 minutes. […]

gram-negative organisms = assay: Inhibition, broth dilution (Example I); type: cell-based
Protocol: as §2, §3

Sarcina = assay: MIC, broth dilution (Examples I/II); type: cell-based, Sarcina lutea (9431); conditions: Table 7, Sarcina; > = no inhibition, max. tested
Protocol: as §2
(§4) Standard solutions (or suspensions) at 1,000 μg/ml were twofold serially diluted with additional broth to a concentration of 125 μg/ml. A 4-ml amount of each dilution was then quickly, and with constant agitation, dispensed into appropriately labeled screw-capped glass tubes (16 by 125 mm). The tubes were sterilized with steam at 15 psi for 15 minutes. After sterilization, all tubes were cooled and incubated overnight at 35° C to insure sterility.
(§5) All compounds were compared on a molar (micromoles/milliliter) rather than on a mass basis. In the following lists of organisms used, those followed by a parenthetical number are registered with the American Type Culture Collection (ATCC); the remainder were isolates from Providence Hospital or Northland Laboratory.
(§6) One drop (0.04 ± 0.01 ml) of an 18-hr broth culture containing 10^7 and 10^9 organisms/ml was added to each dilution of the test compound, as well as to a tube of plain broth which served as the positive control. After inoculation, the contents of each tube were well mixed, and the tubes were incubated at 35° C in a 5% carbon dioxide + […] atmosphere.
(§7) The MIC is defined as the lowest concentration of compound at which no […] evidence of growth was observed when turbidity of the inoculated broth dilutions was compared with control tubes. […] Only a one-tube difference between the bactericidal and bacteriostatic concentrations was normally observed.
(§8) Standard solutions (1000 μg/ml) of three fatty acids and polyglycerol esters thereof were prepared as described in Example I. Also sucrose esters were prepared by transferring the weighed compounds (0.2 gm. dissolved in 1 ml absolute methanol) into 200 ml of sterile Trypticase Soy Broth (TSB). These standard solutions (1000 μg/ml) were twofold serially diluted with additional sterile broth to a concentration of 125 μg/ml. A 3.8 aliquot of each dilution was asceptically delivered into sterile screw-capped culture tubes. All tubes were incubated overnight at 36° C to insure sterility. The microorganisms used in this example were the same as those used in Example I.
(§9) The inoculum, 0.05 ml of an 13-24 hour TSB culture (approximately 10^9 organisms/ml) was asceptically delivered into all dilutions of the compounds, mixed well, and incubated at 36° C. A tube of inoculated broth without the compound served as a positive control and an uninoculated set of dilutions incubated along with the test dilutions, served as a negative control.
(§10) In those cases in which the test compound itself caused turbidity, an aliquot (0.015 ml) of the mixed broth was inoculated onto an agar plate and incubated at 36° C for examination, as described in Example I. The control procedure of Example I was also repeated. The lauric, capric, and oleic acids were used as internal controls and for comparison to Example I. The minimal inhibitory concentrations (μmole/ml) for the compounds studied are given in Tables 7 and 8.

[1] = test system: Streptococcus β-hemolytic Non-A; assay: MIC, broth dilution (Examples I/II); type: cell-based, beta-hemolytic streptococci non-group A; conditions: Table 7, Strep. β-hemo. Non-A
Protocol: as §2, §4, §5, §6, §7, §8, §9, §10

Streptococcus Group D = assay: MIC, broth dilution (Examples I/II); type: cell-based; conditions: Table 7, Strep. Grp. D; > = no inhibition, max. tested
Protocol: as §2, §4, §5, §6, §7, §8, §9, §10

S. epidermidis = assay: MIC, broth dilution (Examples I/II); type: cell-based; conditions: Table 7, Staph epider.; > = no inhibition, max. tested
Protocol: as §2, §4, §5, §6, §7, §8, §9, §10

Micrococci = assay: MIC, broth dilution (Examples I/II); type: cell-based, Micrococcus sp.; conditions: Table 7, Micrococci
Protocol: as §2, §4, §5, §6, §7, §8, §9, §10

Corynebacteria = assay: MIC, broth dilution (Examples I/II); type: cell-based, Corynebacterium sp. (10700); conditions: Table 7, Cornebacteria
Protocol: as §2, §4, §5, §6, §7, §8, §9, §10

Streptococcus Group A = assay: MIC, broth dilution (Examples I/II); type: cell-based, beta-hemolytic streptococci Group A; conditions: Table 7, Strep. Grp. A
Protocol: as §2, §4, §5, §6, §7, §8, §9, §10

S. aureus = assay: MIC, broth dilution (Examples I/II); type: cell-based, Staphylococcus aureus; conditions: Table 7, Staph aureus; > = no inhibition, max. tested
Protocol: as §2, §4, §5
One drop (0.04 ± 0.01 ml) of an 18-hr broth culture containing 10^7 and 10^9 organisms/ml was added to each dilution of the test compound, as well as to a tube of plain broth which served as the positive control. […]

S. pyogenes = assay: Growth curve by optical density (Example IV, FIG. 3); type: cell-based, streptococcus pyogenes; conditions: 24 hours
Protocol: To a series of containers is added 40 ml of Trypticase Soy Broth and 0.5 ml of streptococcus pyogenes (10^8 organisms/ml). To respective containers are added the following: (1) 10 μg of glycerol 1-mono-laurinand 10 μg of glycerol dilaurin; (2) 5 μg of glycerol 1-mono-laurin and 5 μg of glycerol dilaurin; (3) 10 μg of glycerol 1-mono-laurin; and (4) 5 μg of glycerol 1-mono-laurin; and (5) a control without any additives. The rate of growth of the S. pyogenes was followed for 24 hours at 6 hour intervals by reading the optical density of the cultures at […] in a spectrophotometer.

[2] = Staphylococcus aureus, Table 19, agar dilution, read-out: MIC
[3] = Aspergillus niger, Table 19, agar dilution, read-out: MIC
[4] = Bacillus subtilis, Table 19, agar dilution, read-out: MIC
[5] = Escherichia coli, Table 19, agar dilution, read-out: MIC
[6] = Table 19, agar dilution, read-out: MIC
[7] = Pseudomonas aeruginosa, Table 19, agar dilution, read-out: MIC

Row | Molecule | MIC (Sarcina) [µM] | MIC [1] [µM] | MIC (Streptococcus Group D) [µM] | MIC (S. epidermidis) [µM] | MIC (Micrococci) [µM] | MIC (Corynebacteria) [µM] | MIC (Streptococcus Group A) [µM] | further results
1 | Oc1ccccc1 [Phenol] | – | – | – | – | – | – | – | MIC (Staphylococcus aureus; Staphylococcus aureus): 1250 to 2500 µg/mL (≈ 13.3 to 26.6 mM); MIC (Aspergillus niger; Aspergillus niger): 1250 µg/mL (≈ 13.3 mM); MIC (Bacillus subtilis; Bacillus subtilis): 1250 µg/mL (≈ 13.3 mM); MIC (Escherichia coli; Escherichia coli): 2500 µg/mL (≈ 26.6 mM); MIC (Canadida albicans): 1250 to 2500 µg/mL (≈ 13.3 to 26.6 mM); MIC (Pseudomonas aeruginosa; Pseudomonas aeruginosa): 1250 µg/mL (≈ 13.3 mM)
2 | CCCOC(=O)c1ccc(O)cc1 [Propyl paraben] | – | – | – | – | – | – | – | MIC (Staphylococcus aureus; [2]): 2500 µg/mL (≈ 13.9 mM); MIC (Aspergillus niger; [3]): 2500 µg/mL (≈ 13.9 mM); MIC (Bacillus subtilis; [4]): 2500 µg/mL (≈ 13.9 mM); MIC (Escherichia coli; [5]): 5000 µg/mL (≈ 27.7 mM); MIC (Canadida albicans; [6]): 2500 µg/mL (≈ 13.9 mM); MIC (Pseudomonas aeruginosa; [7]): > 10000 µg/mL
3 | C/C=C/C=C/C(=O)O [Sorbic acid] | – | – | – | – | – | – | – | MIC (Staphylococcus aureus; [2]): 1000 µg/mL (≈ 8.92 mM); MIC (Aspergillus niger; [3]): 1000 µg/mL (≈ 8.92 mM); MIC (Bacillus subtilis; [4]): 1000 µg/mL (≈ 8.92 mM); MIC (Escherichia coli; [5]): 1000 µg/mL (≈ 8.92 mM); MIC (Canadida albicans; [6]): 1000 µg/mL (≈ 8.92 mM); MIC (Pseudomonas aeruginosa; [7]): 2000 µg/mL (≈ 17.8 mM)
4 | C[CH2][Hg][S]c1ccccc1C(=O)[O-].[Na+] [Thimerosal] | – | – | – | – | – | – | – | MIC (Staphylococcus aureus; Table 19, agar dilution): 0.78 µg/mL; MIC (Aspergillus niger; Table 19, agar dilution): 0.10 µg/mL; MIC (Bacillus subtilis; Table 19, agar dilution): 0.39 µg/mL; MIC (Escherichia coli; Table 19, agar dilution): 1.60 µg/mL; MIC (Canadida albicans; Table 19, agar dilution): 0.10 to 0.20 µg/mL; MIC (Pseudomonas aeruginosa; Table 19, agar dilution): 6.30 to 12.50 µg/mL
5 | CCCCCCCCCCCCOS(=O)(=O)[O-].[Na+] [sodium lauryl sulfate] | – | – | – | – | – | – | – | MIC (gram-positive organisms): 3470 µM; Inhibition in words (gram-negative organisms): non-inhibitory
6 | Decaglycerol monolaurate | > 1060 | 530 | > 1060 | > 1060 | 530 | 530 | 260 | –
7 | Hexaglycerol monocaprate | > 1580 | 790 | > 1580 | > 1580 | 790 | 390 | 190 | –
8 | Hexaglycerol monolaurate | > 1520 | 380 | > 1520 | > 1520 | 380 | 380 | 190 | –
9 | Triglycerol monocaprate | 2500 | 630 | > 2500 | > 2500 | 1260 | 320 | 150 | MIC (S. aureus): > 2500 µM
10 | Triglycerol monolaurate | 1180 | 590 | > 2360 | > 2360 | 290 | 240 | 290 | –
11 | glycerol dilaurin | – | – | – | – | – | – | – | Antimicrobial activity in words (growth curve) (S. pyogenes): essentially inactive
